According to US20100292231A1, “Indazole Compounds for Treating Inflammatory Disorders, Demyelinating Disorders and Cancers” (priority 2007, published 2010):
Like-named read-outs stand apart in the source and are kept apart here.

Assays:
Experiment in all cases: SelectScreen kinase specificity survey
Assay type in all cases: biochemical
[1] = target: T1, ABL1 G250E (Homo sapiens, UniProt P00519, G250E); settings: estimated, abridged dose response curve, read-out: Kinase inhibitory activity EC50
T1 construct: purchased Invitrogen (SelectScreen platform)
Summary of the method: (§1)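 Kinases from all classes (230 in total) are treated with a unique substrate and optical read-out system in the presence of 100 micromolar ATP. Uninhibited controls give the baseline phosphorylation signal, and graded compound in 5 steps yields the curve for Hill fitting.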

[2] = target: T2, BRSK1 (SAD1) (Homo sapiens, UniProt Q8TDC3)
T2 construct: purchased Invitrogen, Inc. (SelectScreen platform)
T2 sequence (Q8TDC3 whole entry): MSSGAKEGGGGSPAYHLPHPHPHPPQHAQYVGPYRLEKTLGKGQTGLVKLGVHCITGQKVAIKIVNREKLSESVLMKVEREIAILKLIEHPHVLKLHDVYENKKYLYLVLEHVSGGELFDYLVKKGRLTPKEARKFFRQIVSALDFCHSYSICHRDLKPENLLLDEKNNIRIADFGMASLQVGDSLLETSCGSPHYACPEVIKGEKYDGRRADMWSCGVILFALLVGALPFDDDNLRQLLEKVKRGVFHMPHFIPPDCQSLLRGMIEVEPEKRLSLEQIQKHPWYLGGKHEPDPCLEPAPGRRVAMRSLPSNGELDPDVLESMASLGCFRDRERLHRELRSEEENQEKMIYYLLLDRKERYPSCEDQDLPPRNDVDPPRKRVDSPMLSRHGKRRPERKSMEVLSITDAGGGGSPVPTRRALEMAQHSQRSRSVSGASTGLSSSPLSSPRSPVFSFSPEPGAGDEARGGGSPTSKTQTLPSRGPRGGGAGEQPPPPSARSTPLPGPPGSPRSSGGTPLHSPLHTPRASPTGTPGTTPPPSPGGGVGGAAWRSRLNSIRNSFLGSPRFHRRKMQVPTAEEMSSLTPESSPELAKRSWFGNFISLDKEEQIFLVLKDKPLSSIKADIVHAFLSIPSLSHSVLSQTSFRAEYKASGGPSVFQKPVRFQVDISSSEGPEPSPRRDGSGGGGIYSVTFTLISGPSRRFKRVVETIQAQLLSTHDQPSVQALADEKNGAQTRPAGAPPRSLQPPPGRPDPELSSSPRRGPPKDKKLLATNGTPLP
Summary of the method: as §1

[3] = target: T3, BTK (Homo sapiens, UniProt Q06187); settings: estimated, abridged dose response curve, read-out: Kinase inhibitory activity EC50
T3 construct: purchased Invitrogen (SelectScreen)
T3 sequence (Q06187 whole entry): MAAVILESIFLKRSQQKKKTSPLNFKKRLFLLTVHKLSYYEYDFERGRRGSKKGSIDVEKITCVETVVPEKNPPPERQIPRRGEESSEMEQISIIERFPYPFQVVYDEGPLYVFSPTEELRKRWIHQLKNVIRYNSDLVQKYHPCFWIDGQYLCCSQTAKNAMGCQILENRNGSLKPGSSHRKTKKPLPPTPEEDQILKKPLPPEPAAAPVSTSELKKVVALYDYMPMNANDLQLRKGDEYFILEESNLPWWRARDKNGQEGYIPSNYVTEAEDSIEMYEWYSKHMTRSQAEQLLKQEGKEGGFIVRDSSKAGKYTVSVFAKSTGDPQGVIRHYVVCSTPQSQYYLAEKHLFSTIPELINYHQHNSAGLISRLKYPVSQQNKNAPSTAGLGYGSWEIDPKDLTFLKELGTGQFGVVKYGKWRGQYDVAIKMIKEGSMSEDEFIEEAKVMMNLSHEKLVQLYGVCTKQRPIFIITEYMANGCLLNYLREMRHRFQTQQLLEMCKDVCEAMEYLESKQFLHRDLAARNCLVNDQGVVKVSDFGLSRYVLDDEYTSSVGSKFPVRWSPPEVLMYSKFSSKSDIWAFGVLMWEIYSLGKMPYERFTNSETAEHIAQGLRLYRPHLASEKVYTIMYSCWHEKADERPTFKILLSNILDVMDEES
Summary of the method: as §1

[4] = target: T4, CDK1/cyclin B (CDC2) (Homo sapiens, UniProt P06493); settings: estimated, abridged dose response curve, read-out: Kinase inhibitory activity EC50
T4 construct: purchased Invitrogen (SelectScreen platform)
Summary of the method: as §1

[5] = target: T5, CSNK1E (CK1 epsilon) (Homo sapiens, UniProt P49674); settings: estimated, abridged dose response curve, read-out: Kinase inhibitory activity EC50
T5 construct: purchased Invitrogen (SelectScreen platform)
Summary of the method: as §1

[6] = target: T6, CSNK1G2 (CK1 gamma 2) (Homo sapiens, UniProt P78368); settings: estimated, abridged dose response curve, read-out: Kinase inhibitory activity EC50
T6 construct: purchased Invitrogen (SelectScreen platform)
T6 sequence (P78368 whole entry): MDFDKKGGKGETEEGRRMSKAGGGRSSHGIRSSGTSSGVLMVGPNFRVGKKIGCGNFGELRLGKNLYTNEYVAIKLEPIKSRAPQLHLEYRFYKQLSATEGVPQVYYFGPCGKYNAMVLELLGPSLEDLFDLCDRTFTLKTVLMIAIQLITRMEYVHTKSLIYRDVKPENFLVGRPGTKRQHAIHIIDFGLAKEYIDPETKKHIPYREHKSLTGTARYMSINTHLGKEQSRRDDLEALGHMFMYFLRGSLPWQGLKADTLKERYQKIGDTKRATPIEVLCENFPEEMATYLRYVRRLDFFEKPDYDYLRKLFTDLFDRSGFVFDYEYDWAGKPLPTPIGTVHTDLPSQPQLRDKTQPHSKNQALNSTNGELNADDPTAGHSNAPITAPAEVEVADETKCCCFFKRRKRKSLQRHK
Summary of the method: as §1

[7] = target: T7, DYRK4 (Homo sapiens, UniProt Q9NR20)
T7 construct: purchased Invitrogen (SelectScreen platform)
Summary of the method: as §1

[8] = target: T8, EGFR (ErbB1) T790M (Homo sapiens, UniProt P00533, T790M); settings: estimated, abridged dose response curve, read-out: Kinase inhibitory activity EC50
T8 construct: purchased Invitrogen (SelectScreen service)

[9] = target: T9, EPHA2 (Homo sapiens, UniProt P29317); settings: estimated, abridged dose response curve, read-out: Kinase inhibitory activity EC50
T9 construct: purchased Invitrogen (SelectScreen service)
Summary of the method: as §1

[10] = target: T10, EPHB4 (Homo sapiens, UniProt P54760); settings: estimated, abridged dose response curve, read-out: Kinase inhibitory activity EC50
T10 construct: purchased Invitrogen (SelectScreen service)
Summary of the method: as §1

[11] = target: T11, FGFR3 (Homo sapiens, UniProt P22607); settings: estimated, abridged dose response curve, read-out: Kinase inhibitory activity EC50
T11 construct: purchased Invitrogen (SelectScreen platform)
T11 sequence (P22607 23-806): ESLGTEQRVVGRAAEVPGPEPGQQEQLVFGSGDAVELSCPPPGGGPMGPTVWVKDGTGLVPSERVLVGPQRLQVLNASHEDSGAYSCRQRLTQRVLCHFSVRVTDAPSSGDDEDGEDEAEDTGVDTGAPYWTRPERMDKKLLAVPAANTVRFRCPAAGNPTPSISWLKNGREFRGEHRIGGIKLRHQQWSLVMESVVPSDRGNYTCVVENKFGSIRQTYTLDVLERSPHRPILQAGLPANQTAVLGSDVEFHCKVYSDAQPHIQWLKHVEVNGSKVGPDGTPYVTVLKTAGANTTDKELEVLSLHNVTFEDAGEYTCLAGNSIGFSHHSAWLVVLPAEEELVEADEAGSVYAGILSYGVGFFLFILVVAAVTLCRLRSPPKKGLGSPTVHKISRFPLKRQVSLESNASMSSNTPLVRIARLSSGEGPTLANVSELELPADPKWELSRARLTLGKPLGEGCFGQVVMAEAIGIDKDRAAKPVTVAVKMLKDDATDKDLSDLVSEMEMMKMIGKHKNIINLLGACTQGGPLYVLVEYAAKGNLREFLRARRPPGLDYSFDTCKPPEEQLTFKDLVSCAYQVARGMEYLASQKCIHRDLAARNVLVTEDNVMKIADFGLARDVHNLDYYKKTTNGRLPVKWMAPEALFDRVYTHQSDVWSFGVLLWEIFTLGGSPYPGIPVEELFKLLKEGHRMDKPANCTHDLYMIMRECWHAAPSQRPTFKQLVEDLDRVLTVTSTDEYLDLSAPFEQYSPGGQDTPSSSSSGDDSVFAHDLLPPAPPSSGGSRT
Summary of the method: as §1

[12] = target: T12, FGR (Homo sapiens, UniProt P09769); settings: estimated, abridged dose response curve, read-out: Kinase inhibitory activity EC50
T12 construct: purchased Invitrogen (SelectScreen)
T12 sequence (P09769 whole entry): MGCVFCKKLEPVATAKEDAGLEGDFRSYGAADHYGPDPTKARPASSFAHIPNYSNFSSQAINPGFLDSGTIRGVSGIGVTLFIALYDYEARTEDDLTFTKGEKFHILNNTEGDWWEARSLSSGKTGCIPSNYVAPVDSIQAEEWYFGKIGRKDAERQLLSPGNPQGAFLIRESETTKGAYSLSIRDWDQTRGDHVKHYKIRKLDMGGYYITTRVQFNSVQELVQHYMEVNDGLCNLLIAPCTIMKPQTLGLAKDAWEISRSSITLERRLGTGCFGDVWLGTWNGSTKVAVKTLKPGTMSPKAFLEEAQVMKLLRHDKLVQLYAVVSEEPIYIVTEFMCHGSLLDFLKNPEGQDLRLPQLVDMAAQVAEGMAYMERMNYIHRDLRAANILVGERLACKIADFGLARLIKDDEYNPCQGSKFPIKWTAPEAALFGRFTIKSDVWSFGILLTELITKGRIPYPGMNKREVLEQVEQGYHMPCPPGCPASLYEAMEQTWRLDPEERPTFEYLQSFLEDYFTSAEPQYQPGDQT
Summary of the method: as §1

[13] = target: T13, FLT1 (VEGFR1) (Homo sapiens, UniProt P17948); settings: estimated, abridged dose response curve, read-out: Kinase inhibitory activity EC50
T13 construct: purchased Invitrogen, Inc. (SelectScreen platform)
Summary of the method: as §1

[14] = target: T14, LTK (TYK1) (Homo sapiens, UniProt P29376); settings: estimated, abridged dose response curve, read-out: Kinase inhibitory activity EC50
T14 construct: purchased Invitrogen (SelectScreen platform)
Summary of the method: as §1

[15] = target: T15, LYN B (Homo sapiens, UniProt P07948); settings: estimated, abridged dose response curve, read-out: Kinase inhibitory activity EC50
T15 construct: purchased Invitrogen (SelectScreen)
Summary of the method: as §1

[16] = target: T16, MAP2K6 (MKK6) (Homo sapiens, UniProt P52564); settings: estimated, abridged dose response curve, read-out: Kinase inhibitory activity EC50
T16 construct: purchased Invitrogen (SelectScreen platform)
Summary of the method: as §1

[17] = target: T17, MAPKAPK3 (Homo sapiens, UniProt Q16644); settings: estimated, abridged dose response curve, read-out: Kinase inhibitory activity EC50
T17 construct: purchased Invitrogen, Inc. (SelectScreen platform)
Summary of the method: as §1

[18] = target: T18, MAPKAPK5 (PRAK) (Homo sapiens, UniProt Q8IW41); settings: estimated, abridged dose response curve, read-out: Kinase inhibitory activity EC50
T18 construct: purchased Invitrogen, Inc. (SelectScreen platform)
Summary of the method: as §1

[19] = target: T19, NTRK1 (TRKA) (Homo sapiens, UniProt P04629)
T19 construct: purchased Invitrogen (SelectScreen)
Summary of the method: as §1

[20] = target: T20, PAK4 (Homo sapiens, UniProt O96013); settings: estimated, abridged dose response curve, read-out: Kinase inhibitory activity EC50
T20 construct: purchased Invitrogen (SelectScreen platform)
Summary of the method: as §1

[21] = target: T21, PRKCZ (PKC zeta) (Homo sapiens, UniProt Q05513); settings: estimated, abridged dose response curve, read-out: Kinase inhibitory activity EC50
T21 construct: purchased Invitrogen, Inc. (SelectScreen platform)
T21 sequence (Q05513 whole entry): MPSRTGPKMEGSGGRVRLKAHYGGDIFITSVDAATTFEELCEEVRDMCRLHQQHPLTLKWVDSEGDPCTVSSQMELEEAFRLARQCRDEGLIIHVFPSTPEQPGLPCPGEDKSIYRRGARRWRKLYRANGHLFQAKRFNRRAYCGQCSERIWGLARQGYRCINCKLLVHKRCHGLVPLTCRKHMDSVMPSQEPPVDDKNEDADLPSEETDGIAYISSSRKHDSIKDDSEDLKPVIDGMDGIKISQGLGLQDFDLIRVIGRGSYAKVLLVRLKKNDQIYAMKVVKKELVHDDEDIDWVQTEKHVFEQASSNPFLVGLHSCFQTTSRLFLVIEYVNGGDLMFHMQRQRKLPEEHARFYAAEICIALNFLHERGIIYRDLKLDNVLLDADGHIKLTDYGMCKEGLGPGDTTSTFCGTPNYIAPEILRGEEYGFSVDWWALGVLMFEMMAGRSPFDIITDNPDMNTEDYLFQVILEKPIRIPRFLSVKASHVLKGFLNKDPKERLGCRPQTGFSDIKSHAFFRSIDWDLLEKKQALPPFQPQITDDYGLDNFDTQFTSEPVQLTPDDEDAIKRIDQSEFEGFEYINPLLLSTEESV
Summary of the method: as §1

[22] = target: T22, PRKD2 (PKD2) (Homo sapiens, UniProt Q9BZL6); settings: estimated, abridged dose response curve, read-out: Kinase inhibitory activity EC50
T22 construct: purchased Invitrogen, Inc. (SelectScreen platform)
T22 sequence (Q9BZL6 whole entry): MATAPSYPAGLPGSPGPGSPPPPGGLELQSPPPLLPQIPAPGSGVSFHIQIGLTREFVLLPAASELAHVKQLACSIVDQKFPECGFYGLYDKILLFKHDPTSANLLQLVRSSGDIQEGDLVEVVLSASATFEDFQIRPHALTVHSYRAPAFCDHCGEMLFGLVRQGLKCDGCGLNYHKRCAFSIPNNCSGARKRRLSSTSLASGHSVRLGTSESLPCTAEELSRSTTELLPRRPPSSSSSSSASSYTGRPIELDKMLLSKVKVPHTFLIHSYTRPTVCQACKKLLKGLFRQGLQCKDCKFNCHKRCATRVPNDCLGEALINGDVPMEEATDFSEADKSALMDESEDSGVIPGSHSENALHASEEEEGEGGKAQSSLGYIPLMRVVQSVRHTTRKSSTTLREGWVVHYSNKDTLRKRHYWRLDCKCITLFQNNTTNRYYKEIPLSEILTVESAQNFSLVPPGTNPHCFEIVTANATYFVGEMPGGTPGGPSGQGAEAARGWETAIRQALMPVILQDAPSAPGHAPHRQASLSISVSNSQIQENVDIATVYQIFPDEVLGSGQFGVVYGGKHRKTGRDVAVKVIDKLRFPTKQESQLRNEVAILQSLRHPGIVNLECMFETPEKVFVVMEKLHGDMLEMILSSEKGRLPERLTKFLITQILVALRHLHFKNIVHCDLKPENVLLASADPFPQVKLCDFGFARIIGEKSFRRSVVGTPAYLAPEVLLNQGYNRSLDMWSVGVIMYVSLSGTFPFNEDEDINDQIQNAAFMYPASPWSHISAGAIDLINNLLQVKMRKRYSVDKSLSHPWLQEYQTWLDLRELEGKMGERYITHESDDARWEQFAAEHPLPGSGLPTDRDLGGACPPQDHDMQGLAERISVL
Summary of the method: as §1

[23] = target: T23, RPS6KA4 (MSK2) (Homo sapiens, UniProt O75676); settings: estimated, abridged dose response curve, read-out: Kinase inhibitory activity EC50
T23 construct: purchased Invitrogen, Inc. (SelectScreen platform)
Summary of the method: as §1

[24] = target: T24, RPS6KA5 (MSK1) (Homo sapiens, UniProt O75582); settings: estimated, abridged dose response curve, read-out: Kinase inhibitory activity EC50
T24 construct: purchased Invitrogen, Inc. (SelectScreen platform)
Summary of the method: as §1

[25] = target: T25, STK22D (TSSK1) (Homo sapiens, UniProt Q9BXA7); settings: estimated, abridged dose response curve, read-out: Kinase inhibitory activity EC50
T25 construct: purchased Invitrogen, Inc. (SelectScreen platform)
T25 sequence (Q9BXA7 whole entry): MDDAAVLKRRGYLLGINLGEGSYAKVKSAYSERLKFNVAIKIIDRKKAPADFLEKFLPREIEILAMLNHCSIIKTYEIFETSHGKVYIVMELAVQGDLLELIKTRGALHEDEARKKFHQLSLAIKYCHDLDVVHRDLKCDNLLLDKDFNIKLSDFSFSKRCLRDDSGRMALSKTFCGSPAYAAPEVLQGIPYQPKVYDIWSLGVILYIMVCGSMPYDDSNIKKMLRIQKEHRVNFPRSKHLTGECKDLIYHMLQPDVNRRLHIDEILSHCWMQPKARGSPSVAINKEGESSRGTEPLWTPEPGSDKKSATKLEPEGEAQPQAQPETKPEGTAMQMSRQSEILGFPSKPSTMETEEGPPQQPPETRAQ
Summary of the method: as §1

[26] = target: T26, TBK1 (Homo sapiens, UniProt Q9UHD2); settings: estimated, abridged dose response curve, read-out: Kinase inhibitory activity EC50
T26 construct: purchased Invitrogen, Inc. (SelectScreen service)
Summary of the method: as §1

SMILES	EC50 [1] [µM]	EC50 [3] [µM]	EC50 [4] [µM]	EC50 [5] [µM]	EC50 [6] [µM]	EC50 [8] [µM]	EC50 [9] [µM]	EC50 [10] [µM]	EC50 [11] [µM]	EC50 [12] [µM]	EC50 [13] [µM]	EC50 [14] [µM]	EC50 [15] [µM]	EC50 [16] [µM]	EC50 [17] [µM]	EC50 [18] [µM]	EC50 [20] [µM]	EC50 [21] [µM]	EC50 [22] [µM]	EC50 [23] [µM]	further results
CN(C)CCCNc1ccc2ncn3c4ccc5[nH]ncc5c4c(=O)c1c23 [Compound (IV)]	4.05	1.44	3.95	> 5	> 5	4.01	> 5	> 5	3.21	0.367	> 5	> 5	0.426	> 5	> 5	> 5	> 5	> 5	0.759	> 5	EC50 ([2]; BRSK1 (SAD1), estimated, abridged dose response curve, read-out: Kinase inhibitory activity EC50): 1.39 µM; EC50 ([7]; DYRK4, estimated, abridged dose response curve, read-out: Kinase inhibitory activity EC50): > 5 µM; EC50 ([19]; NTRK1 (TRKA), estimated, abridged dose response curve, read-out: Kinase inhibitory activity EC50): 0.438 µM; EC50 [24]: > 5 µM; EC50 [25]: 2.02 µM; EC50 [26]: > 5 µM
CCN(CC)CCNc1ccc2ncn3c4ccc(O)cc4c(=O)c1c23 [Symadex, 5-(2-(diethylamino)ethylamino)-8-hydroxy-6H-imidazo[4,5,1-de]acridin-6-one, reference compound]	> 5	3.02	> 5	1.09	> 5	2.9	> 5	> 5	> 5	1.27	> 5	> 5	0.812	> 5	> 5	> 5	> 5	> 5	0.292	> 5	EC50 [2]: 1.93 µM; EC50 [7]: > 5 µM; EC50 [19]: 1.43 µM; EC50 [24]: > 5 µM; EC50 [25]: 1.95 µM; EC50 [26]: > 5 µM
